Test results reported in patent publication US8455475B2 (Gruenenthal GmbH, priority 2009, dated 2013).

molecular target: T1, rat B1R (bradykinin receptor 1) (Rattus norvegicus, UniProt P97583); experiment: FLIPR Ca2+ assay (Fluo-4) on CHO K1 cells stably transfected with the B1R gene of the rat (rB1R cells): % inhibition at 10 μM / IC50, agonist Des-Arg9-bradykinin; format: cell-based; conditions: CHO-K1, rat B1R
T1 construct: expressed in transfected cells; host or cells: CHO K1 cells
T1 sequence (P97583 1-337): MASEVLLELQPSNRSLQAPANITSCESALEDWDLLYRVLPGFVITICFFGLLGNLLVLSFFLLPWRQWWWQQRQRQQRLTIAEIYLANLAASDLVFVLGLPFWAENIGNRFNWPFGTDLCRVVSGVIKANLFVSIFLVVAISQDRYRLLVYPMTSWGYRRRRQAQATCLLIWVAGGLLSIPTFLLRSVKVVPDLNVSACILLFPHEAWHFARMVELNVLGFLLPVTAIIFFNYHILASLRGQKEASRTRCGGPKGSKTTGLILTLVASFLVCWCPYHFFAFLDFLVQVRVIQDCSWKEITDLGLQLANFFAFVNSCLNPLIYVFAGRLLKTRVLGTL
Summary of the method: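 Antagonism is measured as the drop in peak Fluo-4 Ca2+ signal when the EC80 agonist follows 10–20 min compound exposure. The single-point screen uses 10 μM; IC50 uses several concentrations. Values are given as % of maximal achievable inhibition.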

SMILES	inhibition at 10 µM [%]
Cc1cccc(Cl)c1S(=O)(=O)NC1CCc2ccc(C(=O)N3CCC4(CC3)CCN(c3ccc(C(F)(F)F)cc3)CC4)cc21 (centres unmarked) [IND_CC-239, 2-Chloro-6-methyl-N-[6-[9-[4-(trifluoromethyl)-phenyl]-3,9-diazaspiro[5.5]-undecane-3-carbonyl]-2,3-dihydro-1H-inden-1-yl]-benzenesulfonic acid amide]	71
O=C(NC1CCc2ccc(C(=O)N3CCC4(CCN(C(=O)c5ccc(F)cc5Cl)CC4)C3)cc21)c1sccc1Cl (centres unmarked) [IND_CC-584, 3-Chloro-N-[6-[8-(2-chloro-4-fluoro-benzoyl)-2,8-diazaspiro[4.5]decane-2-carbonyl]-2,3-dihydro-1H-inden-1-yl]-thiophene-2-carboxylic acid amide]	63
CSc1ncccc1C(=O)N1CCC2(CCN(C(=O)c3ccc4c(c3)C(NC(=O)c3ccccc3Cl)CC4)CC2)CC1 (centres unmarked) [IND_CC-595, 2-Chloro-N-[6-[9-(2-methylsulfanyl-pyridine-3-carbonyl)-3,9-diazaspiro[5.5]undecane-3-carbonyl]-2,3-dihydro-1H-inden-1-yl]-benzamide]	91
N#Cc1ccc(CN2CCC3(CC2)CCN(C(=O)c2ccc4c(c2)C(NC(=O)c2sccc2Cl)CC4)C3)cc1 (centres unmarked) [IND_CC-569, 3-Chloro-N-[6-[8-[(4-cyano-phenyl)-methyl]-2,8-diazaspiro[4.5]decane-2-carbonyl]-2,3-dihydro-1H-inden-1-yl]-thiophene-2-carboxylic acid amide]	52
Cc1cccc(Cl)c1C(=O)NC1CCc2ccc(C(=O)N3CCC4(CCN(Cc5cnn(C)c5C)CC4)C3)cc21 (centres unmarked) [IND_CC-729, 2-Chloro-N-[6-[8-[(1,5-dimethyl-1H-pyrazol-4-yl)-methyl]-2,8-diazaspiro-[4.5]decane-2-carbonyl]-2,3-dihydro-1H-inden-1-yl]-6-methyl-benzamide]	76
O=C(NC1CCc2ccc(C(=O)N3CCC4(CCN(Cc5c(F)cccc5Cl)CC4)CC3)cc21)c1cccc(Cl)c1Cl (centres unmarked) [IND_CC-727, 2,3-Dichloro-N-[6-[9-[(2-chloro-6-fluoro-phenyl)-methyl]-3,9-diazaspiro[5.5]undecane-3-carbonyl]-2,3-dihydro-1H-inden-1-yl]-benzamide]	74
Cc1cccc(Cl)c1C(=O)NC1CCc2ccc(C(=O)N3CCC4(CCN(Cc5cccc(C#N)c5)CC4)C3)cc21 (centres unmarked) [IND_CC-732, 2-Chloro-N-[6-[8-[(3-cyano-phenyl)-methyl]-2,8-diazaspiro[4.5]decane-2-carbonyl]-2,3-dihydro-1H-inden-1-yl]-6-methyl-benzamide]	100
COc1ccc(C(=O)NC2c3cc(C(=O)N4CCC5(CC4)CCN(c4ccncc4)CC5)ccc3CC2(C)C)c(F)c1 (centres unmarked) [IND_CC-311, N-[2,2-Dimethyl-6-(9-pyridin-4-yl-3,9-diazaspiro[5.5]undecane-3-carbonyl)-1,3-dihydro-inden-1-yl]-2-fluoro-4-methoxy-benzamide]	83
O=C(c1ccc2c(c1)C(N(C(=O)c1ccccc1Cl)C1CC1)CC2)N1CCC2(CCN(Cc3ccc(F)cc3Cl)CC2)C1 (centres unmarked) [IND_CC-537, 2-Chloro-N-[6-[8-[(2-chloro-4-fluoro-phenyl)-methyl]-2,8-diazaspiro[4.5]-decane-2-carbonyl]-2,3-dihydro-1H-inden-1-yl]-N-cyclopropyl-benzamide]	62
COc1ccc(C(=O)NC2CCc3ccc(C(=O)N4CCC5(CC4)CCN(c4ccncc4)CC5)cc32)c(Cl)c1 (centres unmarked) [IND_CC-211, 2-Chloro-4-methoxy-N-[6-(9-pyridin-4-yl-3,9-diazaspiro[5.5]undecane-3-carbonyl)-2,3-dihydro-1H-inden-1-yl]-benzamide]	104
Cc1noc(C)c1CN1CCC2(CC1)CCN(C(=O)c1ccc3c(c1)C(NC(=O)c1cccc(Cl)c1Cl)CC3)C2 (centres unmarked) [IND_CC-723, 2,3-Dichloro-N-[6-[8-[(3,5-dimethyl-isoxazol-4-yl)-methyl]-2,8-diazaspiro[4.5]decane-2-carbonyl]-2,3-dihydro-1H-inden-1-yl]-benzamide]	55
CN(C1CCc2ccc(C(=O)N3CCC4(CC3)CCN(c3ccncc3)CC4)cc21)S(=O)(=O)c1cc(Cl)ccc1Cl (centres unmarked) [IND_CC-344, 2,5-Dichloro-N-methyl-N-[6-(9-pyridin-4-yl-3,9-diazaspiro[5.5]undecane-3-carbonyl)-2,3-dihydro-1H-inden-1-yl]-benzenesulfonic acid amide]	99
COc1ccc(CN2CCC3(CC2)CCN(C(=O)c2ccc4c(c2)C(NC(=O)c2cc(C(F)(F)F)ccc2Cl)CC4)C3)cc1F (centres unmarked) [IND_CC-636, 2-Chloro-N-[6-[8-[(3-fluoro-4-methoxy-phenyl)-methyl]-2,8-diazaspiro[4.5]-decane-2-carbonyl]-2,3-dihydro-1H-inden-1-yl]-5-(trifluoromethyl)-benzamide]	79
O=C(CCC1CCCC1)NC1CCc2ccc(C(=O)N3CCC4(CCN(c5ccncc5)CC4)C3)cc21 (centres unmarked) [IND_CC-413, 3-Cyclopentyl-N-[6-(8-pyridin-4-yl-2,8-diazaspiro[4.5]decane-2-carbonyl)-2,3-dihydro-1H-inden-1-yl]-propionamide]	103
O=C(NC1CCc2ccc(C(=O)N3CCC4(CCN(CCCc5cccc(F)c5)CC4)C3)cc21)c1cc(C(F)(F)F)ccc1Cl (centres unmarked) [IND_CC-691, 2-Chloro-N-[6-[8-[3-(3-fluorophenyl)-propyl]-2,8-diazaspiro[4.5]decane-2-carbonyl]-2,3-dihydro-1H-inden-1-yl]-5-(trifluoromethyl)-benzamide]	95
CN(C1CCc2ccc(C(=O)N3CCC4(CC3)CCN(c3ccncc3)CC4)cc21)S(=O)(=O)Cc1cccc(Cl)c1 (centres unmarked) [IND_CC-351, 1-(3-Chlorophenyl)-N-methyl-N-[6-(9-pyridin-4-yl-3,9-diazaspiro[5.5]undecane-3-carbonyl)-2,3-dihydro-1H-inden-1-yl]-methanesulfonic acid amide]	99
O=C(NC1CCc2ccc(C(=O)N3CCC4(CC3)CCN(c3ccncc3)CC4)cc21)C1CCCCC1 (centres unmarked) [IND_CC-364, N-[6-(9-Pyridin-4-yl-3,9-diazaspiro[5.5]undecane-3-carbonyl)-2,3-dihydro-1H-inden-1-yl]-cyclohexanecarboxylic acid amide]	103
O=C(NC1CCc2ccc(C(=O)N3CCC4(CCN(Cc5ccc6nccnc6c5)CC4)C3)cc21)c1sccc1Cl (centres unmarked) [IND_CC-571, 3-Chloro-N-[6-[8-(quinoxalin-6-yl-methyl)-2,8-diazaspiro[4.5]decane-2-carbonyl]-2,3-dihydro-1H-inden-1-yl]-thiophene-2-carboxylic acid amide]	52
N#Cc1ccc(CN2CCC3(CC2)CCN(C(=O)c2ccc4c(c2)C(NC(=O)c2cc(Cl)ccc2F)CC4)CC3)cc1 (centres unmarked) [IND_CC-653, 5-Chloro-N-[6-[9-[(4-cyano-phenyl)-methyl]-3,9-diazaspiro[5.5]undecane-3-carbonyl]-2,3-dihydro-1H-inden-1-yl]-2-fluoro-benzamide]	64
Cc1ccc(C(=O)NC2CCc3ccc(C(=O)N4CCC5(CCN(c6ccncc6)CC5)C4)cc32)c(F)c1 (centres unmarked) [IND_CC-319, 2-Fluoro-4-methyl-N-[6-(8-pyridin-4-yl-2,8-diazaspiro[4.5]decane-2-carbonyl)-2,3-dihydro-1H-inden-1-yl]-benzamide]	102
